This is an account of results in PMC12040169 (PLOS Biology, 2025).

The nature of this data set: in vitro. The conditions noted are these: human, hela cells, % viability.

As a reminder, the viability is a read-out of living cells in per cent, often relative to untreated cells. Consider `O=C1CCC(C(=O)Nc2cnc(-c3cccc(C(F)(F)F)c3)c(-c3cccnc3)n2)=NN1` [CBK036950], for which the viability at 28.5 h, 10 µM was 88.3%.
In the case of `CCN(CC)CCN1CCN(c2cc(-c3cccnc3)ncn2)CC1` [CBK036957], the viability at 28.5 h, 10 µM is 94.8%.
As for `O=c1[nH]ccn1CCNc1cc(-c2ccccc2Oc2ccccc2)ncn1` [CBK036966], the figure is 90.4%; as for `O=C(CCOc1ccccc1)Nc1cnc(-c2ccc(F)cc2)c(-c2ccco2)n1` [CBK036967], 93.1%; as for `CC(=O)c1ccc(-c2nccnc2NCC(O)COc2ccccc2)s1` (stereo not shown) [CBK036976], 107%.
Turning to `CS(=O)(=O)c1ccc(-c2nccnc2NCc2cccnc2)cc1` [CBK036977], the viability at 28.5 h, 10 µM came out at 104%.
As for `CN(C)CCN(C)c1ccc(-c2ccc(F)c(Cl)c2)cn1` [CBK036979], the figure is 96.8%.
On to `COc1ncc(-c2ccc(Nc3ccc(N4CCOCC4)cc3)nc2)c(OC)n1` [CBK036988], for which the viability at 28.5 h, 10 µM was found to be 95%.
As for `COc1ccc(-c2nc(NC(=O)COc3ccc(C)c4c3CCC4)cnc2-c2ccc(F)cc2)cc1` [CBK036990], the figure is 88.7%.
The figure for `COc1ccc(C(=O)OC(C)(C)C)c(-c2nccnc2N[C@@H](C)c2ccccc2)c1` [CBK036994] is 94.2%; for `Cc1c(O)cccc1Nc1cc(-c2cccc(N(C)C)c2)ncn1` [CBK036995] it is 94.3%; for `NS(=O)(=O)c1ccc(C(=O)Nc2cnc(-c3ccc(F)cc3)c(-c3ccsc3)n2)cc1` [CBK036998] it is 98.8%.
As for `COc1ccc(-c2nc(NC(=O)C3CCC(OC)CC3)cnc2-c2ccc(F)cc2)cc1` (stereo not shown) [CBK037004], the figure is 88.4%; as for `Clc1cc(Nc2ccc3[nH]ccc3c2)n2nccc2n1` [CBK037009], 84.7%.
Consider `OC(CNc1nccnc1-c1cccc(C(F)(F)F)c1)COc1ccccc1` (stereo not shown) [CBK037010], for which the viability at 28.5 h, 10 µM stood at 89.9%.
The figure for `OCC1CCCN1c1cc(Cl)nc2ccnn12` (stereo not shown) [CBK037011] is 95.7%; for `CC(C)[C@H](CO)Nc1nccnc1-c1ccc(C(=O)N2CCOCC2)cc1` [CBK037012] it is 97.7%.
On to `CN1CCN(c2cc(-c3cccc4cccnc34)nc3ccnn23)CC1` [CBK037013], for which the viability at 28.5 h, 10 µM worked out at 90.8%.
Turning to `Oc1cccc(-c2nccnc2NCc2cccc(C(F)(F)F)c2)c1` [CBK037014], the viability at 28.5 h, 10 µM stood at 86.9%.
As for `CN(C)CCN(C)c1cccc(-c2cccc(OC(F)(F)F)c2)n1` [CBK037020], the figure is 102%.
As for `COc1cc(C)c(Nc2cccc(-c3ccsc3)n2)cc1OC` [CBK037025], the viability at 28.5 h, 10 µM was found to be 104%.
The figure for `CN(C)CCN(C)c1ccc(/C=C/c2ccccc2)cn1` [CBK037026] is 98.4%; for `COc1ccc(CNc2cc(-c3cccc(Cl)c3)nc3ccnn23)cc1` [CBK037037] it is 95.8%.
For the compound `CN(C)c1ccccc1-c1cc(NC2CCCCC2)ncn1` [CBK037041], the viability at 28.5 h, 10 µM stood at 105%.
Turning to `OCc1ccc(-c2cc(NCc3cccs3)n3nccc3n2)cc1` [CBK037046], the viability at 28.5 h, 10 µM came to 106%.
The figure for `CN(C)CCN1CCN(c2nccnc2-c2cccc(CO)c2)CC1` [CBK037047] is 94.7%.
The figure for `CN1CCN(C(=O)c2cccc(-c3nccnc3NCc3cccc(Cl)c3)c2)CC1` [CBK037048] is 108%; for `Nc1cccc(-c2cc(N3CCCC3CO)n3nccc3n2)c1` (stereo not shown) [CBK037049] it is 88.6%.
The figure for `CC(C)Nc1nccnc1-c1cccnc1` [CBK037054] is 98.9%; for `CC(O)CNc1nccnc1-c1cccc(O)c1` (stereo not shown) [CBK037055] it is 97.6%.
In the case of `CC(O)CNc1nccnc1-c1cccc(CO)c1` (stereo not shown) [CBK037056], the viability at 28.5 h, 10 µM turned out to be 91.5%.
As for `C[C@@H](Nc1nccnc1-c1ccc(C(=O)N2CCOCC2)cc1)c1ccccc1` [CBK037058], the figure is 107%; as for `Clc1cc(N[C@@H]2CCN(Cc3ccccc3)C2)n2nccc2n1` [CBK037069], 92.3%.
The figure for `COc1cc(-c2nccnc2NCc2ccco2)cc(OC)c1OC` [CBK037072] is 111%; for `COc1ccc(CNc2cc(/C=C/c3ccccc3)nc3ccnn23)cc1` [CBK037075] it is 103%; for `O=C(CCc1cccc(F)c1)Nc1cnc(-c2ccc(F)cc2)c(-c2ccoc2)n1` [CBK037077] it is 85.3%.
As for `OCCCNc1cc(Nc2ccccc2)n2nccc2n1` [CBK037078], the figure is 102%; as for `COc1ccccc1-c1nccnc1N1CCN(c2ccncc2)CC1` [CBK037081], 87.8%; as for `CCC(CO)Nc1nccnc1-c1cccc(C(=O)N2CCN(C)CC2)c1` (stereo not shown) [CBK037087], 92.6%.
Turning to `COc1ccc(C(C)C)cc1-c1cc(NCCc2cccnc2)n2nccc2n1` [CBK037097], the viability at 28.5 h, 10 µM worked out at 104%.
On to `OCc1ccccc1-c1nccnc1NCc1ccco1` [CBK037098], for which the viability at 28.5 h, 10 µM came out at 94.5%.
As for `O=C(Cc1csc2ccccc12)Nc1cnc(-c2ccc(F)cc2)c(-c2ccoc2)n1` [CBK037102], the figure is 93.3%; as for `OCc1ccccc1-c1cc(N2CCN(Cc3cccnc3)CC2)n2nccc2n1` [CBK037105], 98.9%; as for `Clc1cc(Nc2cccc(OCc3ccccc3)c2)n2nccc2n1` [CBK037109], 92.2%.
As to `COc1ccccc1OCC(=O)Nc1cnc(-c2cccc(C)c2)c(-c2cccnc2)n1` [CBK037112], the viability at 28.5 h, 10 µM worked out at 84.1%.
For `CN(c1ccccc1)c1cc(-c2cccc(O)c2)nc2ccnn12` [CBK037121], the viability at 28.5 h, 10 µM was 91%.
For the compound `COc1cc(CNc2cc(-c3ccccc3N(C)C)ncn2)cc(OC)c1OC` [CBK037123], the viability at 28.5 h, 10 µM was 93.1%.
`CCCC/C=C/c1cc(NCCC)n2nccc2n1` [CBK037127]: the viability at 28.5 h, 10 µM was 99.1%.
Regarding `COc1ccc(C(C)C)cc1-c1cncc(NCC(c2cccnc2)N(C)C)n1` (stereo not shown) [CBK037132], the viability at 28.5 h, 10 µM was 110%.
On to `Cc1cccc(-c2ncc(NC(=O)C3CC3)nc2-c2cccnc2)c1` [CBK037134], for which the viability at 28.5 h, 10 µM turned out to be 98.9%.
Consider `CN1CCN(c2ccc(-c3cncc(NCCc4ccccn4)n3)cn2)CC1` [CBK037135], for which the viability at 28.5 h, 10 µM came out at 87.2%.
As for `CCCC/C=C/c1nccnc1N[C@@H](C)c1ccccc1` [CBK037138], the figure is 84.7%; as for `CN(C)CCN(C)c1cc(-c2cccc(Br)c2)nc2ccnn12` [CBK037140], 106%.
As for `CN(C)CCN(C)c1cncc(-c2ccc3ccccc3c2)n1` [CBK037146], the viability at 28.5 h, 10 µM was 77.7%.
In the case of `COc1ccc(-c2nc(NC(=O)c3cnccn3)cnc2-c2ccc(F)cc2)cc1` [CBK037150], the viability at 28.5 h, 10 µM turned out to be 104%.
As for `CC(=O)c1ccc(-c2nc(NC(=O)CC3OC(=O)c4ccccc43)cnc2-c2cccc(C)c2)s1` (stereo not shown) [CBK037152], the figure is 112%.
The figure for `CCCC/C=C/c1cc(NCCc2ccccn2)n2nccc2n1` [CBK037155] is 96.5%.
As to `CN1CCN(c2cc(-c3ccccc3N(C)C)nc3ccnn23)CC1` [CBK037158], the viability at 28.5 h, 10 µM worked out at 108%.
